Data on three compounds can be found in patent US20250262172A1 (ANTECIP BIOVENTURES II LLC, priority 2022, published 2025).

The conditions of data set [1]: powder; cited from earlier work.
Data set [2] can be described thus: Clinical trials of the bupropion and dextromethorphan combination, poor metabolizers vs other patients.
The nature of data set [3]: Steady state pharmacokinetic data in 12 poor metabolizers in efficacy clinical trials (Example 2). Conditions: 105 mg bupropion hydrochloride and 45 mg dextromethorphan hydrobromide twice a day.
The conditions of data set [4]: 7 days of twice-daily 30 mg dextromethorphan and 30 mg quinidine; cited from earlier work.
A short description of data set [5]: Concomitant use of the subject combination with strong CYP2D6 inhibitors. The format is in vivo, human. Conditions: subject combination with one or more strong CYP2D6 inhibitors. From the text: In some embodiments, the subject composition may be co-administered with one or more strong Inhibitors of CYP2D6. […] It is, thus, recommended to monitor patients for adverse effects or adverse reactions potentially attributable to dextromethorphan, such as somnolence and dizziness.

Data set [6] is described as follows: Effect of CYP2D6 poor metabolizer status on pharmacokinetics of the 45 mg dextromethorphan hydrobromide / 105 mg bupropion hydrochloride tablet (Example 3, FIG. 1). Conditions: CYP2D6 poor metabolizers vs extensive or ultra-extensive metabolizers; after 8 days of twice daily dosing of the tablet.
A short description of data set [7]: Pharmacokinetics in 3 CYP2D6 poor metabolizers given bupropion hydrochloride 105 mg and dextromethorphan hydrobromide 45 mg twice a day (Example 1). Particulars: 3 poor metabolizers; 105 mg bupropion hydrochloride and 45 mg dextromethorphan hydrobromide twice a day.
For data set [8] the following is noted: CYP2D6 inhibited by quinidine; vs patients who were not CYP2D6 poor metabolizers; cited from earlier work.

As to `CC(NC(C)(C)C)C(=O)c1cccc(Cl)c1.Cl` (racemic) [Bupropion hydrochloride, (±)-1-(3-chlorophenyl)-2-[(1,1-dimethylethyl)amino]-1-propanone hydrochloride], the solubility in water entry in data set [1] is “highly soluble”.
Take `Br.COc1ccc2c(c1)[C@]13CCCC[C@@H]1[C@H](C2)N(C)CC3` [Dextromethorphan hydrobromide, morphinan, 3-methoxy-17-methyl-, (9α, 13α, 14α), hydrobromide monohydrate]: the solubility in water entry in data set [1] was “sparingly soluble”.
As for `COc1ccc2c(c1)[C@]13CCCC[C@@H]1[C@H](C2)N(C)CC3` [dextromethorphan], the “Cmax and AUC of dextromethorphan in poor metabolizers vs patients who are not poor metabolizers” value in data set [2] is “significantly higher”. In addition, the “plasma concentrations of dextromethorphan vs exposures for non-poor metabolizer” value in data set [3] is “generally higher”. In data set [4], the “increase in AUC0-12 of poor metabolizers compared to extensive metabolizers” value is listed as approximately 1.46 fold and the “increase in Cmax of poor metabolizers compared to extensive metabolizers” value was “about 1.43 fold”. Further, the “plasma concentrations of dextromethorphan” value in data set [5] is “increases”. In addition, in data set [6], the “increase in dextromethorphan AUC0-12 (GMR)” value is recorded as 3.40 fold and the “increase in dextromethorphan Cmax (GMR)” value turned out to be 3.00 fold. Further, in data set [7], the “increase in dextromethorphan AUC0-12 compared to extensive metabolizers” value is approximately 3.4 fold and the “increase in dextromethorphan Cmax compared to extensive metabolizers” value is approximately 3 fold. In addition, in data set [8], the “AUC0-12 of dextromethorphan higher for CYP2D6 poor metabolizers” value is “about 46%” and the “Cmax of dextromethorphan higher for poor metabolizers” value was “about 40%”.
